Results from patent US7205298B2, “Substituted triazine kinase inhibitors” (Janssen Pharmaceutica N.V., priority 2002, dated 2007).
pIC50: −log10 of the molar value.

Experiments:
[1] = molecular target: GSK-3 (beta isoform) (Oryctolagus cuniculus, UniProt G1T8E2); assay: Kinase selectivity assay GSK-3; format: biochemical, rabbit
Method: (§1) Assays to test compound inhibition of other kinases were preformed using methods that measure the amount of phosphorylation of a biotinylated peptide substrate. Biotinylated peptide substrates were selected from the literature as appropriate for the enzyme being evaluated. The general procedure used to assay for kinase activity is as follows: a kinase reaction mix was prepared in 50 mM Tris-HCl pH=8, 10 mM MgCl2, 0.1 mM Na3VO4, 1 mM DTT, 10 μM ATP, 0.25–1 μM biotinylated peptide substrate, 0.2–0.8 μCuries per well ^33P-γ-ATP (2000–3000 Ci/mmol). Assay conditions vary slightly for each protein kinase, for example, insulin receptor kinase requires 10 mM MnCl2 for activity and Calmodulin-dependent protein kinase requires calmodulin and 2 mM CaCl2. The reaction mixture was dispensed into the wells of a streptavidin coated Flashplate and 1 μL test compound in 100% DMSO was added to a 100 μL reaction volume resulting in a final concentration of 1% DMSO in the reaction. Enzyme was diluted in 50 mM Tris-HCl pH=8.0, 0.1% BSA and added to each well. The reaction was incubated for one hour at 30° C. in the presence of a test compound. […] The plate was read on a scintillation counter to determine ^33P-γ-ATP incorporated into the immobilized peptide substrate. […] A maximum and minimum signal for the assay was determined on each plate. […]

[2] = molecular target: T1, Calmodulin Kinase (calmodulin-dependent protein kinase 2) (Rattus norvegicus, UniProt P11275); assay: Kinase selectivity assay Calmodulin Kinase; format: biochemical
T1 construct: purchased New England Biolabs 6060; host or cells: insect cells
Method: as §1

[3] = test system: HCT-116 colon carcinoma; assay: Inhibition of cell proliferation, 14C-thymidine incorporation, HCT-116; format: cell-based; settings: Homo sapiens
Method: The ability of a test compound to inhibit the proliferation of cell growth was determined by measuring incorporation of ^14C-labelled thymidine into newly synthesized DNA within the cells. This method was used on cell lines derived from carcinomas originating from several tissues such as HeLa cervical adenocarcinoma (American Type Culture Collection (ATCC), Virginia, Cat. #CCL-2), HCT-116 colon carcinoma (CCL-247), MDA-MB-231 (Xenogen Corp.), PC-3 prostate adenocarcinoma (ATCC CRL-1435) and A375 malignant melanoma (ATCC CRL-1619).
Using this method, the effect of a compound on cell growth of cells with many different phenotypes can be determined. Cells were trypsinized and counted and 3000–8000 cells were added to each well of a 96-well CytoStar tissue culture treated scintillating microplate (Amersham #RPNQ0160) in complete medium in a volume of 100 μl. Cells were incubated for 24 hours in complete medium at 37° C. in an atmosphere containing 5% CO2. 1 μL of test compound in 100% DMSO was then added to the wells of the plate. DMSO only was added to control wells. Cells were incubated for 24 more hours in complete medium at 37° C. in an atmosphere containing 5% CO2. […] The degree of methyl ^14C-thymidine incorporation was quantified on a Packard Top Count.

Chain of GSK-3 (beta isoform) (G1T8E2 1-432): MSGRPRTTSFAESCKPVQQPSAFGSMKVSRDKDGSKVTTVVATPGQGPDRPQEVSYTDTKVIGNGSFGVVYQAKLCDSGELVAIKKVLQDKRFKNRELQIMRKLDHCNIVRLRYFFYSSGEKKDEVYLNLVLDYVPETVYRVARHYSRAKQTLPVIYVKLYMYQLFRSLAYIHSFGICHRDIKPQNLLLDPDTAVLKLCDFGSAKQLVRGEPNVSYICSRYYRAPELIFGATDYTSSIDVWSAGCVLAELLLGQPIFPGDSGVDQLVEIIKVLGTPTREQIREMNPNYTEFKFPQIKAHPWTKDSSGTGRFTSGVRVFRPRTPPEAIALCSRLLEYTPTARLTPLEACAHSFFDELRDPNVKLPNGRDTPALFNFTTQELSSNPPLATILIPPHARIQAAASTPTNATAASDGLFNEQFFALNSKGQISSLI

Compound | pIC50 [1] | pIC50 [2] | pIC50 [3]
OCCCNc1cc(-c2ncnc(Nc3cccc(Cl)c3)n2)ccn1 [Compound 2, 3-((4-(4-((3-chlorophenyl)amino)-1,3,5-triazin-2-yl)-2-pyridinyl)amino)-1-propanol] | 7.77 | < 5.00 | 7.32
OCCCNc1cncc(-c2ncnc(Nc3cccc(Cl)c3)n2)c1 [Compound 1, 3-((5-(4-((3-chlorophenyl)amino)-1,3,5-triazin-2-yl)-3-pyridinyl)amino)-1-propanol] | 8.30 | 4.27 | 6.56
